The nature of data set [1]: Plasma pharmacokinetics of II-38 and 2,4-DNP released from II-38. To be noted: for half-life: read-out: t1/2 of II-38; for bioavailability: read-out: % F of II-38. The data set is classed as in vivo, Sprague-Dawley male rats. The method, then: The oral bioavailability and plasma pharmacokinetic (PK) properties of II-38 prodrug and 2,4-DNP-released from II-38 prodrug was investigated in Sprague-Dawley (S-D) male rats after a single i.v. injection of II-38 at 1.6 mg/kg (eq. to 1 mg/kg 2,4-DNP) and an oral dose eq. to 5, 25 and 50 mg/kg of 2,4-DNP. Blood samples were taken up to […].
All procedures that involved the use of rats were conducted in accordance with the guidelines set forth by the University of Arkansas for Medical Sciences (UAMS) Institutional Animal Care and Use Committee established by the National Institutes of Health's Guide for the Care and Use of Laboratory Animals (1996). Male Sprague-Dawley rats weighing 250-300 grams were housed three per cage with ad libitum access to food and water in the Division of Laboratory Animal Resources, UAMS. Rats were anesthetized with isofluorane (2-5%)/oxygen (1.5-2.0 L/min) and surgically implanted with cannulae in the jugular (i.v. dosing) and femoral (blood sampling) veins. […] Following appropriate evidence of successful recovery from surgery, IV or oral dosing was performed and blood samples (0.15 mL) were collected at 0, 5, 15, 30, 45, 60, 120, 240 and 480 min. Plasma samples were prepared and analysis was run using a LC/MS/MS spectrometry.
For the i.v. injection, a total volume of 0.8 mL/kg was used at a dose of 1.6 mg/kg (eq. to 1 mg/kg of 2,4-DNP). For the oral route, stock solutions of II-38 containing eq. to 1, 5 and 25 mg/mL of 2,4-DNP were prepared and administered to rats at final doses eq. to 1, 5 and 25 mg/kg of 2,4-DNP, respectively. An oral dose of 8 mg/kg of II-38 (eq. to 5 mg/kg) was dissolved in a phosphate-saline buffer solution, pH 7.4 containing 5% DMSO and 20% PEG-400, while a dose of 40 mg/kg (eq. to 25 mg/kg) was formulated with 0.5% methyl cellulose (methocel) containing 1% DMSO. A high dose of II-38 (eq. 50 mg/kg) was formulated with water containing 1% DMSO and 40% PEG-400. Because of the different vehicles used in formulations of II-38, a dose eq. to 25 mg/kg of 2,4-DNP was repeated using a vehicle consisting of DMSO, PEG-400, and water (1%: 40%: 59%). The later dose was utilized for comparison of PK data of 2,4-DNP-released from II-38 for differences in formulations.
Jugular and femoral vein-catheterized Sprague-Dawley male rats (weights 250-300 g, n=4) were treated with II-38 at a single oral dose of 8, 40 and 80 mg/kg (eq. to 5, 25 and 50 mg/kg of 2,4-DNP, respectively) or injected a single i.v. dose of 1.6 mg/kg of II-38 (eq. to 1 mg/kg 2,4-DNP, n=2). Blood samples (0.15 mL) were collected at 0, 5, 15, 30, 45, 60, 120, 240 and 480 min. Plasma samples were prepared and 2,4-DNP, II-38 and 2,4-DNP-released from II-38 concentrations were quantitated using the LC/MS/MS spectrometry assay method described below.
To isolate the analytes from rat plasma, 50 μL of control or treated plasma fortified with 10 μL of 2,4-DNP-d3 (10 μg/mL) as an internal standard to which 0.3 mL of methanol followed by 0.3 mL of acetonitrile was added. The mixture was vortex-mixed for 30 s and centrifuged for 10 min at 10,000 rpm at room temperature. The supernatant was transferred into 5 mL glass tubes and evaporated to dryness at 37° C. under nitrogen gas. The pellet was reconstituted with 50 μL of acetonitrile, vortex-mixed for 30 sec, followed by sonication for 1 min. Following centrifugation at 1000 rpm for 10 min at room temperature, 5 μL of the supernatant was then injected onto the column, and analytes were quantified by a LC/MS/MS spectrometry.
1—Plasma concentrations of 2,4-DNP after a single i.v. injection of 2,4-DNP of 1 mg/kg or 5 mg/kg oral administration; 2—Plasma concentrations of II-38 and 2,4-DNP-released from II-38 after an i.v. injection 1.6 mg/kg of II-38 eq. to 1 mg/kg of 2,4-DNP or an oral dose of 8, 40 and 80 mg/kg of II-38 eq. to 5, 25 and 50 mg/kg of 2,4-DNP, respectively. […]

In another data set the test system is spiny neurons. Description: Model of Huntington's disease. The data set is classed as in vivo. To be noted: treatment for over 17-weeks. The text has this: In one embodiment, the invention provides compositions and methods for treating Huntington's disease. […] DNP should prevent muscle loss since it reduces mitochondrial osmotic swelling by reducing intra-mitochondrial calcium concentration and inducing BDNF, which is a myokine (muscle protectant) outside of the brain.

The test system of data set [2] is noise induced hearing loss. Put plainly: In vivo noise exposure, Compound Action Potential threshold. Details: species or system Rats. The following applies: for CAP threshold (compound + Noise): noise 8 h, 105 dB, 8-16 kHz, 5 days oral gavage q.d., 2,4-DNP 5 mpk, II-38 80 mpk, 1-week post exposure; for threshold lower than Noise alone group: same study, Noise alone 25 dB. On the procedure:
In vivo Noise Exposure Pilot DNP (2,4-DNP) & Prodrug of DNP (II-38): Rats, N=6/group: control, noise alone, noise+2,4-DNP (5 mpk), noise+II-38 (80 mpk). Noise exposure: 8 h, 105 dB, noise band 8-16 kHz. Treatment duration 5 days oral gavage q.d. starting day of noise. Endpoint: Compound Action Potential (CAP) recorded from the round window membrane 1-week post exposure. Threshold: intensity in dB SPL needed to produce 4 μV CAP amplitude.

Setting [3] is: male, Sprague-Dawley, rat, in vivo, iv, 1.6 mg/kg, single i.v. injection of II-38 1.6 mg/kg (eq. to 1 mg/kg 2,4-DNP), n = 2.
[4] abbreviates: male, Sprague-Dawley, rat, in vivo, po, 5 mg/kg, oral II-38 eq. to 5 mg/kg of 2,4-DNP.
Setting [5] is: male, Sprague-Dawley, rat, in vivo, po, 25 mg/kg, oral II-38 eq. to 25 mg/kg of 2,4-DNP, PEG-400.
Setting [6] is: male, Sprague-Dawley, rat, in vivo, po, 25 mg/kg, oral II-38 eq. to 25 mg/kg of 2,4-DNP, methocel.
Setting [7] is: male, Sprague-Dawley, rat, in vivo, po, 50 mg/kg, oral II-38 eq. 50 mg/kg of 2,4-DNP.

Where two headings read alike, the source gives them in different places.

As for `O=[N+]([O-])c1ccc(O)c([N+](=O)[O-])c1` [2,4-DNP, 2,4-dinitrophenol], the “fold increased level of 2,4-DNP after oral 2,4-DNP compared to 2,4-DNP released from II-38” value in data set [1] (2,4-DNP 5 mg/kg oral vs II-38 oral eq. to 5 mg/kg) is listed as “approximately 12.0 fold”; in data set [1] (2,4-DNP 5 mg/kg oral vs II-38 oral eq. to 25 mg/kg (PEG-400)) it was about 3.4 fold; in data set [1] (2,4-DNP 5 mg/kg oral vs II-38 oral eq. to 25 mg/kg (methocel)), about 2.2 fold; in data set [1] (2,4-DNP 5 mg/kg oral vs II-38 oral eq. to 50 mg/kg), about 1.4 fold. For the same molecule, in the data set on spiny neurons, the “effect on spiny neurons” value is reported as “protection on the spiny neurons”. The “CAP threshold (compound + Noise)” value in data set [2] amounted to 15 dB. Moreover, in data set [2], the “threshold lower than Noise alone group” value is “about 10 dB”.
In the case of `O=C(Oc1ccc([N+](=O)[O-])cc1[N+](=O)[O-])N1CCOCC1` [II-38, 2,4-Dinitrophenyl morpholine-4-carboxylate], in data set [1] (setting [3]), the AUC (in general, the area under the concentration-time curve, a measure of exposure) was 8600 ng·h/mL; the Cmax (in general, the highest concentration seen after dosing) stood at 900 ± 50 ng/mL; the half-life amounted to 6.89 ± 1.09 h. Moreover, the clearance in data set [1] (male, Sprague-Dawley, rat, in vivo, iv, single i.v. injection of II-38 1.6 mg/kg (eq. to 1 mg/kg 2,4-DNP), n = 2, read-out: Cl of II-38) turned out to be 3.1 ± 0.3 mL/min/kg. For the same molecule, the Vd in data set [1] (male, Sprague-Dawley, rat, in vivo, iv, single i.v. injection of II-38 1.6 mg/kg (eq. to 1 mg/kg 2,4-DNP), n = 2, read-out: Vss of II-38) was determined as 1.86 ± 0.101 L/kg. Moreover, in data set [1] (setting [4]), the exposure (AUC) is 15000 ng·h/mL; the Cmax amounted to 1100 ± 200 ng/mL; the Tmax – broadly, the time from dosing to the highest level – was 2.19 h; the bioavailability was determined as 44.8 ± 4.4%. Moreover, the half-life in data set [1] (setting [4]) worked out at 15.2 ± 7 h. Also, in data set [1] (setting [5]), the AUC is 14600 ng·h/mL, the Cmax came out at 2410 ± 300 ng/mL, the Tmax is 1.5 h and the bioavailability came out at 21.3 ± 0.9%. In data set [1] (setting [5]), the half-life is 7.41 ± 3.06 h. Moreover, in data set [1] (setting [6]), the AUC was 18400 ng·h/mL, the Cmax is 1800 ± 300 ng/mL, the Tmax is 0.458 h and the bioavailability is 31.6 ± 1.2%. Moreover, the half-life in data set [1] (setting [6]) is 11 ± 4.2 h. Further, in data set [1] (setting [7]), the AUC was 24300 ng·h/mL, the maximum concentration (Cmax) came to 1900 ± 600 ng/mL, the Tmax was 1.69 h and the bioavailability was 24.5 ± 1.1%. Besides, in data set [1] (setting [7]), the half-life worked out at 17.7 ± 6.96 h. Further, in data set [2], the “CAP threshold (compound + Noise)” value is 5 dB and the “threshold lower than Noise alone group” value is reported as “approximately 20 dB”.

Values taken from patent publication US11406642B2, “DNP and DNP prodrug treatment of neuromuscular, neurodegenerative, autoimmune, developmental, traumatic brain injury, concussion, dry eye disease, hearing loss and/or metabolic diseases” (priority 2016, dated 2022).
